Results from ChEMBL document CHEMBL1140239, “Novel phomactin analogues as PAF receptor ligands” (Bioorg Med Chem Lett, 2005).
pIC50: −log10 of the molar value.

biological target: Platelet-activating factor receptor (Homo sapiens, UniProt P25105); assay: Inhibition of [3H]PAF binding to platelet activating factor receptor in human platelet
Sequence (P25105 whole entry): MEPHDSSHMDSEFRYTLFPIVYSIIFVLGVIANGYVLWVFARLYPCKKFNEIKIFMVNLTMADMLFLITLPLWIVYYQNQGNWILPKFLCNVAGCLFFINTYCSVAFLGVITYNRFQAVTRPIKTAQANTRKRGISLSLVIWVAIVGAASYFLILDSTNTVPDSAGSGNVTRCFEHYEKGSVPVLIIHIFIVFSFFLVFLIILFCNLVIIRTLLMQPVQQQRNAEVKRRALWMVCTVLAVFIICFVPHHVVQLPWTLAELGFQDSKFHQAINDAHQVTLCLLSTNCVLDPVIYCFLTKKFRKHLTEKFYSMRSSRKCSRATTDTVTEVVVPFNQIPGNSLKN

SMILES	pIC50
C/C1=C\CC[C@]2(C)O[C@H]2[C@@]2(O)OCC3=C2CC[C@@H](C)[C@]3(C)CC1	6.24
C/C1=C\CC[C@]2(C)O[C@@H]3C[C@@H](C)[C@](C)(CC1)[C@]14CO[C@](O)([C@H]2O)[C@]31O4	5.63
C/C1=C\CC[C@@]2(C)O[C@@H]2[C@@]2(O)OCC3=C2[C@@H](O)C[C@@H](C)[C@]3(C)CC1	5.84
C/C1=C\CC[C@]2(C)O[C@H]2[C@@]2(O)OCC3=C2[C@H](O)C[C@@H](C)[C@]3(C)CC1	5.95
C/C1=C\CC[C@@]2(C)O[C@@H]2[C@@]2(O)OCC3=C2CC[C@@H](C)[C@]3(C)CC1	6.24
C/C1=C\[C@@]2(O)OC[C@]34O[C@]23CC[C@@H](C)C4(C)CC/C(C)=C/CC1 (single isomer, unassigned)	5.94
C/C1=C\CC[C@]2(C)O[C@@H]3C[C@@H](C)C(C)(CC1)C1=C3[C@](O)(OC1)[C@H]2O (single isomer, unassigned)	5.90
